The IC50 is the concentration at which inhibition is half-maximal.

Here are results for 13 molecules from ChEMBL document CHEMBL3870316, “Design, synthesis and structure-activity relationships of novel 4-phenoxyquinoline derivatives containing 1,2,4-triazolone moiety as c-Met kinase inhibitors” (Eur J Med Chem, 2016).

The structures appear in SMILES notation.

The nature of the first test: Cytotoxicity against c-Met over-expressed human HT-29 cells assessed as cell growth inhibition after 72 hrs by MTT assay. To be noted: HT-29, 72 h. (In general: Formazan colour is commonly taken as a measure of viable cells.)
As for `COc1cc2c(Oc3ccc(NC(=O)c4nn(-c5cccc(F)c5)c(=O)n4C)cc3F)ccnc2cc1OCCCN1CCC(C)CC1`, the half-maximal inhibitory concentration (IC50) came out at 400 nM.
On to `COc1cc2c(Oc3ccc(NC(=O)c4nn(-c5cccc(F)c5)c(=O)n4C)cc3F)ccnc2cc1OCCCN1CCN(C)CC1`, for which the IC50 was determined as 290 nM.
As for `CCn1c(C(=O)Nc2ccc(Oc3ccnc4cc(OCCCN5CCN(C)CC5)c(OC)cc34)c(F)c2)nn(-c2ccccc2OC(F)(F)F)c1=O`, the IC50 was 150 nM.
Same read-out and setting: under `COc1cc2c(Oc3ccc(NC(=O)c4nn(-c5cccc(F)c5)c(=O)n4C)cc3F)ccnc2cc1OCCCN1CCCCC1` stands 430 nM.
On the same count and under the same terms, in the case of `COc1cc2c(Oc3ccc(NC(=O)c4nn(-c5ccccc5)c(=O)n4C)cc3F)ccnc2cc1OCCCN1CCOCC1` it was 1460 nM; in that of `COc1cc2c(Oc3ccc(NC(=O)c4nn(-c5ccccc5Cl)c(=O)n4C4CC4)cc3F)ccnc2cc1OCCCN1CCC(C)CC1`, 140 nM; in that of `COc1cc2c(Oc3ccc(NC(=O)c4nn(-c5ccc(F)cc5)c(=O)n4C)cc3F)ccnc2cc1OCCCN1CCCC1`, 970 nM.
Same read-out and setting: under `COc1cc2c(Oc3ccc(NC(=O)c4nn(-c5ccccc5Cl)c(=O)n4C)cc3F)ccnc2cc1OCCCN1CCN(C)CC1` stands 170 nM; under `COc1cc2c(Oc3ccc(NC(=O)c4nn(-c5ccccc5F)c(=O)n4C)cc3F)ccnc2cc1OCCCN1CCCCC1`, 160 nM; under `COc1cc2c(Oc3ccc(NC(=O)c4nn(-c5c(C)cccc5C)c(=O)n4C)cc3F)ccnc2cc1OCCCN1CCCCC1`, 1700 nM.
`COc1cc2c(Oc3ccc(NC(=O)c4nn(-c5ccccc5OC(F)(F)F)c(=O)n4C4CC4)cc3F)ccnc2cc1OCCCN1CCN(C)CC1`: the half-inhibitory concentration (IC50) turned out to be 90 nM.
The same measure, in the same setting: under `COc1cc2c(Oc3ccc(NC(=O)c4nn(-c5c(C)cccc5C)c(=O)n4C)cc3F)ccnc2cc1OCCCN1CCN(C)CC1` stands 1260 nM; under `COc1cc2c(Oc3ccc(NC(=O)c4nn(-c5ccc(Cl)cc5Cl)c(=O)n4C)cc3F)ccnc2cc1OCCCN1CCC(C)CC1`, 180 nM.

Another test is described as follows: Cytotoxicity against c-Met over-expressed human H460 cells assessed as cell growth inhibition after 72 hrs by MTT assay. To be noted: NCI-H460, 72 h.
Take `COc1cc2c(Oc3ccc(NC(=O)c4nn(-c5cccc(F)c5)c(=O)n4C)cc3F)ccnc2cc1OCCCN1CCC(C)CC1`: the IC50 turned out to be 290 nM.
Turning to `COc1cc2c(Oc3ccc(NC(=O)c4nn(-c5cccc(F)c5)c(=O)n4C)cc3F)ccnc2cc1OCCCN1CCN(C)CC1`, the IC50 was 310 nM.
On the same count and under the same terms, in the case of `CCn1c(C(=O)Nc2ccc(Oc3ccnc4cc(OCCCN5CCN(C)CC5)c(OC)cc34)c(F)c2)nn(-c2ccccc2OC(F)(F)F)c1=O` it was 250 nM.
Same read-out and setting: in the case of `COc1cc2c(Oc3ccc(NC(=O)c4nn(-c5cccc(F)c5)c(=O)n4C)cc3F)ccnc2cc1OCCCN1CCCCC1` it was 350 nM; in that of `COc1cc2c(Oc3ccc(NC(=O)c4nn(-c5ccccc5)c(=O)n4C)cc3F)ccnc2cc1OCCCN1CCOCC1`, 1700 nM.
On the same count and under the same terms, in the case of `COc1cc2c(Oc3ccc(NC(=O)c4nn(-c5ccccc5Cl)c(=O)n4C4CC4)cc3F)ccnc2cc1OCCCN1CCC(C)CC1` it was 160 nM; in that of `COc1cc2c(Oc3ccc(NC(=O)c4nn(-c5ccc(F)cc5)c(=O)n4C)cc3F)ccnc2cc1OCCCN1CCCC1`, 730 nM.
As for `COc1cc2c(Oc3ccc(NC(=O)c4nn(-c5ccccc5Cl)c(=O)n4C)cc3F)ccnc2cc1OCCCN1CCN(C)CC1`, the IC50 came to 340 nM.
Still for that read-out and setting: under `COc1cc2c(Oc3ccc(NC(=O)c4nn(-c5ccccc5F)c(=O)n4C)cc3F)ccnc2cc1OCCCN1CCCCC1` stands 260 nM; under `COc1cc2c(Oc3ccc(NC(=O)c4nn(-c5c(C)cccc5C)c(=O)n4C)cc3F)ccnc2cc1OCCCN1CCCCC1`, 3010 nM.
Still for that read-out and setting: in the case of `COc1cc2c(Oc3ccc(NC(=O)c4nn(-c5ccccc5OC(F)(F)F)c(=O)n4C4CC4)cc3F)ccnc2cc1OCCCN1CCN(C)CC1` it was 180 nM.
Still for that read-out and setting: under `COc1cc2c(Oc3ccc(NC(=O)c4nn(-c5c(C)cccc5C)c(=O)n4C)cc3F)ccnc2cc1OCCCN1CCN(C)CC1` stands 2400 nM; under `COc1cc2c(Oc3ccc(NC(=O)c4nn(-c5ccc(Cl)cc5Cl)c(=O)n4C)cc3F)ccnc2cc1OCCCN1CCC(C)CC1`, 450 nM.

A further test in a line: Cytotoxicity against c-Met over-expressed human A549 cells assessed as cell growth inhibition after 72 hrs by MTT assay. The following applies: A549, 72 h.
Take `COc1cc2c(Oc3ccc(NC(=O)c4nn(-c5cccc(F)c5)c(=O)n4C)cc3F)ccnc2cc1OCCCN1CCC(C)CC1`: the IC50 stood at 440 nM.
The same measure, in the same setting: under `COc1cc2c(Oc3ccc(NC(=O)c4nn(-c5cccc(F)c5)c(=O)n4C)cc3F)ccnc2cc1OCCCN1CCN(C)CC1` stands 280 nM; under `CCn1c(C(=O)Nc2ccc(Oc3ccnc4cc(OCCCN5CCN(C)CC5)c(OC)cc34)c(F)c2)nn(-c2ccccc2OC(F)(F)F)c1=O`, 200 nM.
Same read-out and setting: in the case of `COc1cc2c(Oc3ccc(NC(=O)c4nn(-c5cccc(F)c5)c(=O)n4C)cc3F)ccnc2cc1OCCCN1CCCCC1` it was 380 nM.
Same read-out and setting: under `COc1cc2c(Oc3ccc(NC(=O)c4nn(-c5ccccc5)c(=O)n4C)cc3F)ccnc2cc1OCCCN1CCOCC1` stands 700 nM; under `COc1cc2c(Oc3ccc(NC(=O)c4nn(-c5ccccc5Cl)c(=O)n4C4CC4)cc3F)ccnc2cc1OCCCN1CCC(C)CC1`, 200 nM.
Regarding `COc1cc2c(Oc3ccc(NC(=O)c4nn(-c5ccc(F)cc5)c(=O)n4C)cc3F)ccnc2cc1OCCCN1CCCC1`, the concentration for half-maximal inhibition (IC50) was 680 nM.
Still for that read-out and setting: under `COc1cc2c(Oc3ccc(NC(=O)c4nn(-c5ccccc5Cl)c(=O)n4C)cc3F)ccnc2cc1OCCCN1CCN(C)CC1` stands 160 nM.
Still for that read-out and setting: under `COc1cc2c(Oc3ccc(NC(=O)c4nn(-c5ccccc5F)c(=O)n4C)cc3F)ccnc2cc1OCCCN1CCCCC1` stands 220 nM.
For the molecule `COc1cc2c(Oc3ccc(NC(=O)c4nn(-c5c(C)cccc5C)c(=O)n4C)cc3F)ccnc2cc1OCCCN1CCCCC1`, the concentration for half-maximal inhibition (IC50) amounted to 2000 nM.
The same measure, in the same setting: in the case of `COc1cc2c(Oc3ccc(NC(=O)c4nn(-c5ccccc5OC(F)(F)F)c(=O)n4C4CC4)cc3F)ccnc2cc1OCCCN1CCN(C)CC1` it was 110 nM.
Same read-out and setting: in the case of `COc1cc2c(Oc3ccc(NC(=O)c4nn(-c5c(C)cccc5C)c(=O)n4C)cc3F)ccnc2cc1OCCCN1CCN(C)CC1` it was 980 nM.
The same measure, in the same setting: under `COc1cc2c(Oc3ccc(NC(=O)c4nn(-c5ccc(Cl)cc5Cl)c(=O)n4C)cc3F)ccnc2cc1OCCCN1CCC(C)CC1` stands 350 nM.

The nature of the next test: Cytotoxicity against c-Met over-expressed human MKN45 cells assessed as cell growth inhibition after 72 hrs by MTT assay. To be noted: MKN-45, 72 h.
As for `COc1cc2c(Oc3ccc(NC(=O)c4nn(-c5cccc(F)c5)c(=O)n4C)cc3F)ccnc2cc1OCCCN1CCC(C)CC1`, the IC50 was 200 nM.
Still for that read-out and setting: in the case of `COc1cc2c(Oc3ccc(NC(=O)c4nn(-c5cccc(F)c5)c(=O)n4C)cc3F)ccnc2cc1OCCCN1CCN(C)CC1` it was 410 nM; in that of `CCn1c(C(=O)Nc2ccc(Oc3ccnc4cc(OCCCN5CCN(C)CC5)c(OC)cc34)c(F)c2)nn(-c2ccccc2OC(F)(F)F)c1=O`, 57 nM; in that of `COc1cc2c(Oc3ccc(NC(=O)c4nn(-c5cccc(F)c5)c(=O)n4C)cc3F)ccnc2cc1OCCCN1CCCCC1`, 330 nM.
The same measure, in the same setting: in the case of `COc1cc2c(Oc3ccc(NC(=O)c4nn(-c5ccccc5)c(=O)n4C)cc3F)ccnc2cc1OCCCN1CCOCC1` it was 950 nM.
Still for that read-out and setting: in the case of `COc1cc2c(Oc3ccc(NC(=O)c4nn(-c5ccccc5Cl)c(=O)n4C4CC4)cc3F)ccnc2cc1OCCCN1CCC(C)CC1` it was 110 nM; in that of `COc1cc2c(Oc3ccc(NC(=O)c4nn(-c5ccc(F)cc5)c(=O)n4C)cc3F)ccnc2cc1OCCCN1CCCC1`, 760 nM; in that of `COc1cc2c(Oc3ccc(NC(=O)c4nn(-c5ccccc5Cl)c(=O)n4C)cc3F)ccnc2cc1OCCCN1CCN(C)CC1`, 88 nM.
With `COc1cc2c(Oc3ccc(NC(=O)c4nn(-c5ccccc5F)c(=O)n4C)cc3F)ccnc2cc1OCCCN1CCCCC1`, the 50% inhibitory concentration (IC50) worked out at 70 nM.
Still for that read-out and setting: in the case of `COc1cc2c(Oc3ccc(NC(=O)c4nn(-c5c(C)cccc5C)c(=O)n4C)cc3F)ccnc2cc1OCCCN1CCCCC1` it was 1850 nM; in that of `COc1cc2c(Oc3ccc(NC(=O)c4nn(-c5ccccc5OC(F)(F)F)c(=O)n4C4CC4)cc3F)ccnc2cc1OCCCN1CCN(C)CC1`, 61 nM.
For the molecule `COc1cc2c(Oc3ccc(NC(=O)c4nn(-c5c(C)cccc5C)c(=O)n4C)cc3F)ccnc2cc1OCCCN1CCN(C)CC1`, the IC50 came to 1660 nM.
Still for that read-out and setting: under `COc1cc2c(Oc3ccc(NC(=O)c4nn(-c5ccc(Cl)cc5Cl)c(=O)n4C)cc3F)ccnc2cc1OCCCN1CCC(C)CC1` stands 400 nM.
